# pIC50: −log10 of the molar value.
# Experiments:
# [1] = biological target: T1, Cell division cycle 7-related protein kinase (Homo sapiens, UniProt O00311); assay: Inhibition of N-terminus Myc-tagged human CDC7 expressed in Escherichia coli by chemiluminescence assay in presence of ATP
# [2] = biological target: Casein kinase II alpha/beta (Homo sapiens, UniProt P68400); assay: Inhibition of human tertrameric CK2alphabeta holoenzyme using casein as substrate after 1 to 2 hrs by chemiluminescence assay in presence of 2 uM ATP; type: protein-complex assay
# [3] = biological target: Serine/threonine-protein kinase pim-1 (Homo sapiens, UniProt P11309); assay: Inhibition of N-terminus His-tagged human PIM1 expressed in Escherichia coli using AKRRRLSA as substrate after 1 to 2 hrs by chemiluminescence assay
# [4] = biological target: T1, Cell division cycle 7-related protein kinase; assay: Inhibition of CDC7 in human MDA-MB-231T cells assessed as inhibition of MCM2 phosphorylation at Ser53 after 4 hrs; type: cell-based
# [5] = Plasma concentration in mouse at 100 mg/kg, po measured after 1 hr; type: ADME, organism-based; set-up: dose 100 mg/kg, route oral
# [6] = Plasma concentration in mouse at 100 mg/kg, po measured after 4 hrs; type: ADME, organism-based; set-up: dose 100 mg/kg, route oral
# Sequence of Casein kinase II alpha/beta (P67870 whole entry): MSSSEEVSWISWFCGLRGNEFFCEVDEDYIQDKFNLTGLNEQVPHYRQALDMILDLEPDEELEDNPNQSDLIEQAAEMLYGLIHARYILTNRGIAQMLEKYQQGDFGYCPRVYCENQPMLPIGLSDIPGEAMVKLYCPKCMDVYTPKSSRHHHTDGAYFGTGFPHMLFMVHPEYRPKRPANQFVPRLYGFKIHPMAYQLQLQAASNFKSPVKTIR
# Sequence of Casein kinase II alpha/beta (P68400 whole entry): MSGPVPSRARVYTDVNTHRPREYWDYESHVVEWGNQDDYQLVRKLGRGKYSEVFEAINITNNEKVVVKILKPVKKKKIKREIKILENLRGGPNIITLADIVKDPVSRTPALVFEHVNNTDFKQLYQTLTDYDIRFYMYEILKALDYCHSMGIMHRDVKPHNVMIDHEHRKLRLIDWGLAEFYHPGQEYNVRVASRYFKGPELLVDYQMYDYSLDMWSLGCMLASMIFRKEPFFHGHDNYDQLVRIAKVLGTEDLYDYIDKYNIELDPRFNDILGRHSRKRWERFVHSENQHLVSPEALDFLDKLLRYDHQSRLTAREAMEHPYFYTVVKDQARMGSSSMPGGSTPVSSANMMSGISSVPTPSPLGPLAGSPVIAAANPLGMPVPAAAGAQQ
# T1 sequence (O00311 whole entry): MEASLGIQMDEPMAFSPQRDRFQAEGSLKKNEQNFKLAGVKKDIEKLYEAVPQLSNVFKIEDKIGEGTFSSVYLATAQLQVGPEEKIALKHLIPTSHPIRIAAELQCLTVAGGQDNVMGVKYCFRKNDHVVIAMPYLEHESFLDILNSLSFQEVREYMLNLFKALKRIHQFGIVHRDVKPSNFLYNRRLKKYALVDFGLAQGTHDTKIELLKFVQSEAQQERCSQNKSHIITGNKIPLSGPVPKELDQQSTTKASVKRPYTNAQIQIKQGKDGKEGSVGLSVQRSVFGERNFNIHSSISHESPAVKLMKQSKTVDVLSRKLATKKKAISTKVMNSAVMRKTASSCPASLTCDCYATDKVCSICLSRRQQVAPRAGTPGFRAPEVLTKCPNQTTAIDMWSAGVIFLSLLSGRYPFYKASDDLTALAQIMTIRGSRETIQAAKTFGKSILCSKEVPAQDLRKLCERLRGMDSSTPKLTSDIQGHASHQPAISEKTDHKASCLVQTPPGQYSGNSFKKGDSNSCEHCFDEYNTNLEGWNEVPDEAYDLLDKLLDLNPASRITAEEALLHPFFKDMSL
# Sequence of Serine/threonine-protein kinase pim-1 (P11309 whole entry): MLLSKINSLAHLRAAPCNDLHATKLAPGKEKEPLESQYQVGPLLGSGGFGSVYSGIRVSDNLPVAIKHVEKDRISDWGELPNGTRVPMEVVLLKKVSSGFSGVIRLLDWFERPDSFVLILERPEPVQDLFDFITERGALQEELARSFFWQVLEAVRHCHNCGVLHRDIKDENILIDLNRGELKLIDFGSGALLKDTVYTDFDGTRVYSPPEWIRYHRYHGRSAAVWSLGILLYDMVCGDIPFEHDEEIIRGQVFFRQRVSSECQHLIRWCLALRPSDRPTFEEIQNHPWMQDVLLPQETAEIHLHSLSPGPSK
SMILES,pIC50 [1],pIC50 [2],pIC50 [3],pIC50 [4],concentration at 1 h [5],concentration at 4 h [6]
O=c1[nH]c([C@@H]2C[C@@H](F)CN2)nc2c1oc1ccc(Cl)cc12,8.40,6.12,7.19,6.78,,
COc1ccc2oc3c(=O)[nH]c([C@@H]4C[C@@H](F)CN4)nc3c2c1,8.41,6.13,6.99,6.53,,
O=c1[nH]c([C@@H]2CCCN2)nc2c1oc1ccc(Br)cc12,8.32,7.04,7.51,7.12,195 µM,71 µM
Cc1cc(-c2cc(-c3ccccc3)nc(=O)[nH]2)ccc1O,,,,,0.82 µM,0.31 µM
O=c1[nH]c(CN2CC[C@H](O)C2)nc2c1oc1ccc(Br)cc12,,,,,101 µM,49 µM
